Assay [1] concerns E14 ES cells. In words: ES cell differentiation on collagen IV and with retinoic acid. It is filed as cell-based, mouse. The source says:
ES Cell Differentiation on Collagen-IV and With Retinoic Acid. To differentiate ES cells in monolayer culture on collagen IV, around 3×10^4 cells per well were transferred to collagen IV-coated 6-well plates (BD Biosciences, Franklin Lakes, N.J.) cultured for 5 days in ES differentiation medium containing DMEM (Invitrogen), 15% FBS (selected for endothelial differentiation, Stem Cell Technologies, Vancouver, BC), sodium pyruvate and L-glutamine with or without LIF and Gö6983, and were recovered by cell dissociation buffer (BD Biosciences, Franklin Lakes, N.J.). For culturing multiple passages with Gö6983 on collagen-IV, the recovered cells were again plated at a density of ˜3×10^4 cells per well and cultured again for 5 days. […] For RA-induced differentiation on monolayer culture, ES cells were treated with all-trans-retinoic acid (Sigma, St. Louis, Mo.) in ethanol at a concentration of 1 μM with or without LIF and Gö6983 for 6 days followed by study of expression of pluripotency markers (by immunofluorescence or western blot or RT-PCR analysis).

For assay [2], the target named is T1, PKC ζ (Mus musculus, UniProt Q02956).
T1 construct: endogenous in cells; host or cells: mouse ES cells (E14)
Briefly: Western blot analysis of p-PKC ζ in ES cells. The class given is cell-based. As for the experimental part:
Western Blot Analysis. Whole cell lysates were prepared in SDS-gel loading buffer and resolved by 10% PAGE. The antibodies used for this study included β-actin Clone AC-15 from Sigma; p-STAT3 (Tyr705), p-p44/42 MAPK (tyr202/tyr204), p44/42 MAPK, GSK3β, Phospho Akt (Ser473), Akt, p-NFκβ p65 (Ser536), c-Myc, p-c-Myc (Thr58/Ser62), p-p90RSK (Thr359/Ser363), RSK1, Suz12 (D39F6), and Ezh2 (AC22) from Cell Signaling Technology; STAT3 (C-20), Oct-4 (C-10), Nanog (M-149), PKC α (C-20), PKC βI (C-16), PKC βII (C-18), PKC γ (C-19), PKC δ (C-20), PKC ζ (c-20), p-PKC ζ (Thr 410)-R, p-NFκβ p65 (ser311), and RelA (p65) from Santa Cruz Biotechnology; p-LGL1/LGL2 (S650/S654), SSEA4and H3K4Me3 from Abcam; LGL2 (M06), clone 4G2 from Abnova; β-Catenin from BD Transduction Laboratories, and H3K27Me3 and H3K9Me3 from Millipore.

Assay [3] relates to C57BL/6 blastocysts. Briefly: Chimera generation and germ-line transmission by blastocyst injection. The class given is in vivo, mouse. The protocol:
Chimera Generation and Germ-Line Transmission. Prepubertal (3 weeks of age) donor C57BL/6 female mice (Jackson Laboratory, Bar Harbor, Me.) were superovulated, mated overnight to intact C57BL/6 stud males and euthanized by cervical dislocation on day 3.5. Uteri were collected after euthanasia and flushed with M2 medium (Millipore, Bilerica, Mass.) for the collection of blastocysts. Eight to ten ES or iPS cells were injected into the blastocoel of each blastocyst. After injection, the blastocysts were surgically transferred into recipient females that were pseudopregnant by mating with vasectomized males. Recipient females carried the pups to term and nursed until weaning at three weeks. High-level chimeras, generated from newly derived ES cells, were mated with C57BL/6 adult mice to test for germline transmission.

Assay [4] concerns NF-κB target genes. In words: RT-PCR analysis of NF-κB target gene expression. The class given is cell-based, mouse. The protocol:
Quantitative RT-PCR Analysis. RNA was extracted from different cell samples with TRIZOL reagent (Invitrogen). cDNA was prepared by annealing RNA (1 μg) with 250 ng of a 5:1 mixture of random and oligo(dT) primers heated at 68° C. for 10 minutes. This was followed by incubation with Moloney murine leukemia virus reverse transcriptase (50 units) (Invitrogen, Carlsbad, Calif.) combined with 10 mM DTT, RNasin (PROMEGA, Madison, Wis.), and 0.5 mM dNTPs at 42° C. for 1 hour. Reactions were diluted to a final volume of 100 μl and heat inactivated at 97° C. for 5 minutes. Twenty μl PCR reactions contained 2 μl cDNA, 10 μl SYBR Green Master Mix (Applied Biosystems, Foster City, Calif.) and corresponding primer sets. Relative expression levels were determined from a standard curve of serial dilutions of proliferating ES cell cDNA samples and were normalized to the expression of glyceraldehyde-3-phosphate dehydrogenase (GAPDH). At least three independent experiments were done for each set of data.

Assay [5] has as its system Ezh2−/− ES cells. Briefly: Ezh2−/− ES cells on collagen-IV without LIF. The class given is cell-based, mouse. The following applies: absence of LIF. The protocol: Ezh2^−/− ES Cells. Ezh2^−/− cells, passage 6, were maintained on irradiated MEF feeders in standard ES medium (DMEM; Dulbecco's modified Eagle's medium) supplemented with 15% heat-inactivated fetal calf serum, 0.1 mM 2-mercaptoethanol, 2 mM L-glutamine, 0.1 mM non-essential amino acid, 1% of nucleoside mix (100× stock, Sigma), 1000 U/mi LIF and 50 U/ml Penicillin/Streptomycin. For experiments involving Gö6983, Ezh2^−/− cells were passed once without feeders and used for subsequent analysis. For experiments on collagen IV, ˜3×10^4 Ezh2^−/− cells were plated in each well of a six-well tissue culture plate in the presence or absence of LIF and Gö6983.

“Also recorded” adds a separate entry of the source.

T1 sequence (Q02956 whole entry): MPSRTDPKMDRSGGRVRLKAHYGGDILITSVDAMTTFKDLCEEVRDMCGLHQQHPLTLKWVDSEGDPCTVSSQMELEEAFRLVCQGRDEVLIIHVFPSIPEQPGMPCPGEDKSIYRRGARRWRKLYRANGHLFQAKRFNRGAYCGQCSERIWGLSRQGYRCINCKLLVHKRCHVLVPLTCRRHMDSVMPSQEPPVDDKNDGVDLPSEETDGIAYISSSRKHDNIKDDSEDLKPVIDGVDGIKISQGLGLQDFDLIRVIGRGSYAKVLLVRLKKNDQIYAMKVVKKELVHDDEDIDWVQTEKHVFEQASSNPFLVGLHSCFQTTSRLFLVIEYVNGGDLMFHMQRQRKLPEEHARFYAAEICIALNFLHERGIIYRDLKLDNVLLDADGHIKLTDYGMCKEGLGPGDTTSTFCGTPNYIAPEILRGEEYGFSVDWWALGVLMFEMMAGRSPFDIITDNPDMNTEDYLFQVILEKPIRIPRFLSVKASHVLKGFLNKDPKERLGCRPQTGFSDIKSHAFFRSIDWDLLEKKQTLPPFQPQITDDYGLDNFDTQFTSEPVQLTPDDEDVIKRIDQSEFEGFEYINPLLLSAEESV

In the case of `COc1ccc2c(c1)c(C1=C(c3c[nH]c4ccccc34)C(=O)NC1=O)cn2CCCN(C)C` [Gö6983, 3-[1-[3-(dimethylamino)propyl]5-methoxy-1H-indol-3-yl]-4-(1H-indol-3-yl)-1H-pyrrole-2,5-dione], the “multidifferentiation potential upon withdrawal of Gö6983” value in assay [1] (ES cells maintained five passages with Gö6983, then withdrawal, FIG. 1E) is listed as “readily formed EBs or differentiated on collagen IV with induction of lineage-specific gene expression”. In addition, in assay [1] (absence of LIF), the “ES cell differentiation in the presence of collagen IV or retinoic acid” value is recorded as “inhibited ES cell differentiation”. In addition, the “lineage-specific gene expression on collagen IV” value in assay [1] (quantitative RT-PCR, FIG. 1D) is listed as “repression of lineage-specific gene expression”. The “differentiation during continuous culture on collagen IV plates” value in assay [1] (without LIF, up to 8 consecutive passages) is recorded as “without any noticeable differentiation”. Also, in assay [2], the “PKC ζ phosphorylation in ES cells” value is listed as “almost completely inhibited”. The “chimera generation from E14 ES cells maintained with Gö6983” value in assay [3] (7 passages with Gö6983, injected into C57Bl/6 blastocysts) is recorded as “yielded multiple chimeric mice; also recorded: efficiently generated chimeras”. In addition, the “Chimera #” value in assay [3] (E14 cells, 59 blastocysts injected, 7 pups) was 5; in assay [3] (ES 1 (line derived with Gö6983), 45 blastocysts injected, 15 pups), 5; in assay [3] (ES 2 (line derived with Gö6983), 38 blastocysts injected, 6 pups), 2; in assay [3] (iPSC 1, 18 blastocysts injected, 5 pups) it was 3; in assay [3] (iPSC 2, 30 blastocysts injected, 6 pups), 3. Also, the results for the “# of Chimera showing Germline Transmission” value in assay [3] (ES 1 (line derived with Gö6983)) and in assay [3] (ES 2 (line derived with Gö6983)) were 3 and 2, respectively. For the same molecule, the “chimera generation from Gö6983-derived iPS cells” value in assay [3] (injected into blastocysts) is listed as “generate chimeric mice”. For the same molecule, in assay [3] (two lines after six passages, chimeras crossed with C57BL/6 adults), the “chimera and germline contribution of Gö6983-derived ES cells” value is listed as “successfully generated adult chimera, which produced germline offsprings”. Also, the “activation of NF-κB target gene transcription” value in assay [4] (E14 cells, absence of LIF, FIG. 3A) is recorded as “inhibited their activation”. Further, in assay [4] (PKCζkd cells cultured on collagen IV), the “activation of NF-κB target genes, RelA phosphorylation and reporter Luciferase” value is given as “inhibited the activation”. Further, the “collagen-IV-induced Ezh2−/− cell differentiation” value in assay [5] is reported as “completely inhibited”. For the same molecule, the “marker expression in Ezh2−/− cells on collagen-IV” value in assay [5] is reported as “maintained expression of pluripotency markers without the induction of developmental regulator genes”.

For the origin of these results see US8193235B2, “Compositions and methods for establishing and maintaining stem cells in an undifferentiated state” (University of Kansas, priority 2009, dated 2012).
